Experimental data as given in article PMC6921279 (Frontiers in Endocrinology, 2019).

Legend:
[1] = test system: CRF1R-mediated Akt phosphorylation; test: CRF-induced Akt phosphorylation at Ser473 in COS-7 cells expressing HA-CRF1R; format: cell-based, human; details: 100 nM CRF, 5 min
Method: (§1) Plasmid pRK5 encoding the carboxyl terminus of βARK that contains its βγ-binding domain (ct-βARK) was kindly provided by Dr. W. Koch (Center for Translational Medicine, Temple University, Philadelphia, PA), which is a scavenger for G protein βγ subunits ([25]). […] Plasmid pUSEamp encoding dominant-negative Akt-K179M (dn-Akt) was from Upstate Biotechnology (Lake Placid, NY).
(§2) COS-7 cells (from the American Type Culture Collection) were cultured at 37°C in a humidified atmosphere of 95% air, 5% CO2, in DMEM supplemented with 10% FBS, 100 μg/ml streptomycin, and 100 units/ml penicillin (COS-7 growth medium). Transient transfections were performed using LipofectAMINE (Life Technologies: Gaithersburg, MD) as described previously ([27]). Cells were seeded at 8 × 10^5 cells/10-cm dish in COS-7 medium and cultured for 3 days before transfection. COS-7 cells were transfected in 5 ml/dish OptiMEM containing 10 μg/ml LipofectAMINE with empty vector, pcDNA3 encoding the HA-CRF1R or the HA-CRF1R-Δ386 mutant. […] After replacing the transfection medium with fresh growth medium, transfected COS-7 cells were cultured for 1 day. Subsequently, cells were re-seeded in 6-well plates and cultured for an additional day prior to the experiment.
The protocols for measuring total and phosphorylated ERK1/2, c-Src, PYK2, Akt, and EGFR have been previously published ([28], [29]). After cells were cultured to 60–70% confluence, they were serum-deprived for 24 h. On the day of the experiment, cells were treated with the indicated ligands and inhibitors. […] After treatment, cells were placed on ice, the media was aspirated, and the cells were washed twice with ice-cold PBS and lysed in 100 μl of Laemmli sample buffer 1X. The lysates were briefly sonicated, heated at 95°C for 5 min, and centrifuged for 5 min at 14,000 rpm. Resulting supernatants were loaded in separate lanes of a 10% SDS-PAGE gels and electrophoresed. Next, Western transfer on to PDVF membranes was completed. The Western blots were then probed with specific antibodies targeting phosphorylated and non-phosphorylated forms of ERK1/2, c-Src, PYK2, Akt, and EGFR for primary immunodetection. […] The labeled bands were quantified using the Quantity One 4.6.3 software program (Bio-Rad).
Figure 7 CRF mediates Akt activation. […] Total cell lysates were separated by SDS-PAGE and analyzed by immunoblotting with anti-p-Akt Ser^473, as described in Materials and Methods. Akt phosphorylation was quantitated by densitometry, and mean values were plotted from three to five independent experiments. […]

[2] = test system: CRF1R-mediated ERK1/2 phosphorylation; test: Modulation of CRF-stimulated ERK1/2 phosphorylation in COS-7 cells expressing HA-CRF1R; format: cell-based
Method: as §1, §2
The protocols for measuring total and phosphorylated ERK1/2, c-Src, PYK2, Akt, and EGFR have been previously published ([28], [29]). After cells were cultured to 60–70% confluence, they were serum-deprived for 24 h. On the day of the experiment, cells were treated with the indicated ligands and inhibitors. […] After treatment, cells were placed on ice, the media was aspirated, and the cells were washed twice with ice-cold PBS and lysed in 100 μl of Laemmli sample buffer 1X. The lysates were briefly sonicated, heated at 95°C for 5 min, and centrifuged for 5 min at 14,000 rpm. Resulting supernatants were loaded in separate lanes of a 10% SDS-PAGE gels and electrophoresed. Next, Western transfer on to PDVF membranes was completed. The Western blots were then probed with specific antibodies targeting phosphorylated and non-phosphorylated forms of ERK1/2, c-Src, PYK2, Akt, and EGFR for primary immunodetection. After blots were probed with horseradish peroxidase-conjugated secondary antibody, protein bands were visualized with enhanced chemiluminescence ECL reagent (Amersham Pharmacia Biotech, Piscataway, NJ or Pierce Biotechnology, Rockford, IL) and scanned using the GS-800 Calibrated Imaging Densitometer (Bio-Rad). The labeled bands were quantified using the Quantity One 4.6.3 software program (Bio-Rad).
(§3) Total cell lysates were separated by SDS-PAGE and analyzed by immunoblotting with anti-p-ERK1/2 Thr^202/Tyr^204, as described in Materials and Methods. ERK1/2 phosphorylation was quantitated by densitometry, and mean values were plotted from five independent experiments.
(§4) Total cell lysates were separated by SDS-PAGE and analyzed by immunoblotting with anti-p-ERK1/2 Thr^202/Tyr^204 (A–D) or anti-p-EGFR Tyr^1068 (E), as described in Materials and Methods. ERK1/2 and EGFR phosphorylation were quantitated by densitometry, and mean values were plotted from three to five independent experiments.
Total cell lysates were separated by SDS-PAGE and analyzed by immunoblotting with anti-p-ERK1/2 Thr^202/Tyr^204, as described in Materials and Methods. ERK1/2 phosphorylation was quantitated by densitometry, and mean values were plotted from three to five independent experiments.

[3] = test system: PMA-stimulated ERK1/2 phosphorylation; test: Modulation of PMA-stimulated ERK1/2 phosphorylation in COS-7 cells; format: cell-based; details: GM6001 10 μM, 30 min pretreatment; 100 nM PMA, 15 min
Method: COS-7 cells (from the American Type Culture Collection) were cultured at 37°C in a humidified atmosphere of 95% air, 5% CO2, in DMEM supplemented with 10% FBS, 100 μg/ml streptomycin, and 100 units/ml penicillin (COS-7 growth medium). Transient transfections were performed using LipofectAMINE (Life Technologies: Gaithersburg, MD) as described previously ([27]). Cells were seeded at 8 × 10^5 cells/10-cm dish in COS-7 medium and cultured for 3 days before transfection. COS-7 cells were transfected in 5 ml/dish OptiMEM containing 10 μg/ml LipofectAMINE with empty vector, pcDNA3 encoding the HA-CRF1R or the HA-CRF1R-Δ386 mutant. […]
(§5) The protocols for measuring total and phosphorylated ERK1/2, c-Src, PYK2, Akt, and EGFR have been previously published ([28], [29]). […] The labeled bands were quantified using the Quantity One 4.6.3 software program (Bio-Rad).
as §3, with “Figure 2 CRF-induced ERK1/2 phosphorylation is dependent on Gi protein. […] Total” for “Total”, “experiments. […]” for “experiments.”
Total cell lysates were separated by SDS-PAGE and analyzed by immunoblotting with anti-p-ERK1/2 Thr202/Tyr204, as described in materials and methods. […]

[4] = test system: EGF-stimulated ERK1/2 phosphorylation; test: Modulation of EGF-stimulated ERK1/2 phosphorylation in COS-7 cells; format: cell-based; details: GM6001 10 μM, 30 min pretreatment; 10 ng/ml EGF, 10 min
Method: (§6) COS-7 cells (from the American Type Culture Collection) were cultured at 37°C in a humidified atmosphere of 95% air, 5% CO2, in DMEM supplemented with 10% FBS, 100 μg/ml streptomycin, and 100 units/ml penicillin (COS-7 growth medium). Transient transfections were performed using LipofectAMINE (Life Technologies: Gaithersburg, MD) as described previously ([27]). Cells were seeded at 8 × 10^5 cells/10-cm dish in COS-7 medium and cultured for 3 days before transfection. COS-7 cells were transfected in 5 ml/dish OptiMEM containing 10 μg/ml LipofectAMINE with empty vector, pcDNA3 encoding the HA-CRF1R or the HA-CRF1R-Δ386 mutant. […] After replacing the transfection medium with fresh growth medium, transfected COS-7 cells were cultured for 1 day. […]
as §5
as §4, with “Figure 3 Involvement of EGFR transactivation in CRF-stimulated ERK1/2 phosphorylation. […] Total” for “Total”, “experiments. […]” for “experiments.”

[5] = test system: endogenous EGFR in COS-7 cells; test: EGF-stimulated ERK1/2 phosphorylation in COS-7 cells expressing HA-CRF1R; format: cell-based
Method: as §6, §5, §4

[6] = target: HA-epitope tagged human CRF1 receptor (human); test: co-IP; HA-CRF1R immunoprecipitated with anti-HA monoclonal antibody (HA.11) and protein A/G PLUS-Agarose from 1% Nonidet P-40 lysates (50 mM Tris-HCl, 150 mM NaCl, pH 7.4) of transfected COS-7 cells, serum-deprived 24 h, untreated or treated with 100 nM CRF for 10 min at 37°C; blots probed for EGFR and HA, stripped and reprobed for c-Src; densitometry
[7] = target: epidermal growth factor receptor (African green monkey (endogenous in COS-7))

Chain of epidermal growth factor (P01133 971-1023): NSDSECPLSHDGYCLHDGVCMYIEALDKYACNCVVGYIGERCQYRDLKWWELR

COc1cc2ncnc(Nc3cccc(Cl)c3)c2cc1OC [AG1478]
decrease of CRF-stimulated Akt phosphorylation ([1]; AG1478 100 nM): 25%
effect on CRF-stimulated ERK1/2 phosphorylation ([2]; AG1478 100 nM, 100 nM CRF, 5 min): abolished phosphorylation of ERK1/2
IC50 ([2]; COS-7, AG1478 0–1,000 nM, 30 min pretreatment, 100 nM CRF, 5 min, read-out: IC50, inhibition of CRF-stimulated ERK1/2 phosphorylation): 10 nM
inhibition at 0.1 µM ([2]; Homo sapiens, COS-7, 100 nM AG1478, 30 min pretreatment, 100 nM CRF, 5 min, read-out: inhibition of CRF-induced maximal ERK1/2 phosphorylation): ~80%

CNC(=O)[C@H](Cc1c[nH]c2ccccc12)NC(=O)[C@@H](CC(=O)NO)CC(C)C [GM6001]
effect on PMA-induced ERK1/2 phosphorylation [3]: significantly attenuated ERK1/2 phosphorylation induced by PMA
effect on EGF-induced ERK1/2 phosphorylation [4]: significantly attenuated ERK1/2 phosphorylation induced by PMA but not EGF
effect on basal and CRF-stimulated ERK1/2 phosphorylation ([2]; GM6001 0–20 μM, 30 min pretreatment, 100 nM CRF, 5 min): not altered

O=c1cc(N2CCOCC2)oc2c(-c3ccccc3)cccc12 [LY294002]
effect on CRF1R-mediated Akt signaling activation ([1]; LY294002 10 μM, 30 min pretreatment): abolished CRF1R-mediated Akt signaling activation
effect on CRF-stimulated phosphorylation of ERK1/2 ([2]; LY294002 pretreatment (discussion)): inhibited CRF-stimulated phosphorylation of ERK1/2 and Akt

Nc1ncnc2c1ncn2[C@@H]1O[C@@H]2COP(O)(=S)O[C@H]2[C@H]1O (some centres unmarked) [Rp-cAMP]
effect on CRF-stimulated ERK1/2 activation ([2]; Rp-cAMP 0–100 μM, 30 min pretreatment, 100 nM CRF, 5 min): the magnitude of CRF1R-mediated activation of ERK1/2 was similar

CNC(=O)[C@H](Cc1ccccc1)NC(=O)[C@H](CC(C)C)[C@H](CSc1cccs1)C(=O)NO [batimastat]
effect on basal and CRF-stimulated ERK1/2 phosphorylation ([2]; batimastat 5 μM, 30 min pretreatment, 100 nM CRF, 5 min): not altered

EGF: epidermal growth factor
persistence of ERK1/2 phosphorylation ([5]; 10 ng/ml EGF): at least 30 min
EC50 for EGF-induced ERK1/2 phosphorylation ([5]; EGF 0–100 ng/ml, 10 min): 0.23 ng/mL

c-Src (enzyme)
fold increase of co-precipitated Src over control (100 nM CRF, 10 min, against unstimulated cells) [6]: 8 fold

dn-Akt: plasmid pUSEamp encoding dominant-negative Akt-K179M
effect on ERK1/2 activation by CRF ([2]; dn-Akt (K179M) co-transfection, 100 nM CRF): had no significant effect on ERK1/2 activation after stimulation with CRF

epidermal growth factor (from UniProt P01133 971-1023) (ligand)
EC50 of EGF-induced ERK1/2 phosphorylation, COS-7 cells (endogenous EGFR), EGF 0-100 ng/ml for 10 min, immunoblot densitometry [7]: 0.23 ng/mL

epidermal growth factor receptor
fold increase of co-precipitated EGFR over control (100 nM CRF, 10 min, against unstimulated cells) [6]: 2.5 fold
